# From patent US20050032873A1, “3-Amino chroman and 2-amino tetralin derivatives” (Wyeth, priority 2003, published 2005)
# Where a name gives a salt, the structure may show the parent alone.
row,Compound,melting point
1,"CCCN(CCCc1c[nH]c2ccc(F)cc12)C1COc2c(F)ccc(C(N)=O)c2C1 (single isomer, unassigned; (-)) (as salt: hydrochloride) [Compound 2a, (−)-8-fluoro-3-[[3-(5-fluoro-1H-indol-3-yl)propyl](propyl)amino]-3,4-dihydro-2H-chromene-5-carboxamide]",126 °C (dec.)
2,"CCCN(CCCc1c[nH]c2ccccc12)C1CCc2cccc(OC)c2C1 (stereo not shown) (as salt: hydrochloride) [Compound 50, N-[3-(1H-indol-3-yl)propyl]-8-methoxy-N-propyl-1,2,3,4-tetrahydronaphthalen-2-amine]",108 °C (dec.)
3,"COc1ccc2[nH]cc(CCCNC3COc4c(F)ccc(C(N)=O)c4C3)c2c1 (stereo not shown) (as salt: hydrochloride) [Compound 104, 8-fluoro-3-{[3-(5-methoxy-1H-indol-3-yl)propyl]amino}chromane-5-carboxamide]",171 to 176 °C (dec.)
4,"CCCCN(CCCc1c[nH]c2ccc(F)cc12)C1COc2c(F)ccc(C(N)=O)c2C1 (stereo not shown) (as salt: hydrochloride) [Compound 72, 3-{butyl[3-(5-fluoro-1H-indol-3-yl)propyl]amino}-8-fluorochromane-5-carboxamide]",126 °C (dec.)
5,"N#Cc1ccc2[nH]cc(CCCN(C3CCC3)[C@@H]3COc4c(F)ccc(C(N)=O)c4C3)c2c1 (as salt: hydrochloride) [Compound 97a, (3S)-3-[[3-(5-cyano-1H-indol-3-yl)propyl](cyclobutyl)amino]-8-fluorochromane-5-carboxamide]",170 to 177 °C (dec.)
6,"CCCNC(=O)c1ccc(F)c2c1CC(N(CCCc1c[nH]c3ccc(F)cc13)C1CCC1)CO2 (stereo not shown) (as salt: hydrochloride) [Compound 61, 3-{cyclobutyl[3-(5-fluoro-1H-indol-3-yl)propyl]amino}-8-fluoro-N-propylchromane-5-carboxamide]",67 °C (dec.)
7,"NC(=O)c1ccc(F)c2c1OCC(N(CCCCc1c[nH]c3ccc(F)cc13)C1CCC1)C2 (stereo not shown) (as salt: hydrochloride) [Compound 126, 3-{cyclobutyl[4-(5-fluoro-1H-indol-3-yl)butyl]amino}-5-fluorochromane-8-carboxamide]",130 °C (dec.)
8,"CCN(CCCc1c[nH]c2ccc(Cl)cc12)C1COc2c(F)ccc(C(N)=O)c2C1 (stereo not shown) (as salt: hydrochloride) [Compound 115, 3-[[3-(5-chloro-1H-indol-3-yl)propyl](ethyl)amino]-8-fluorochromane-5-carboxamide]",149 to 156 °C (dec.)
9,"CNC(=O)c1ccc(F)c2c1CC(NCCc1c[nH]c3ccc(F)cc13)CO2 (stereo not shown) (as salt: hydrochloride) [Compound 84, 8-fluoro-3-{[2-(5-fluoro-1H-indol-3-yl)ethyl]amino}-N-methylchromane-5-carboxamide]",148 °C (dec.)
10,"CCCN(C(C)CCCc1c[nH]c2ccc(F)cc12)C1COc2c(F)ccc(C(N)=O)c2C1 (single isomer, unassigned; (+)) (as salt: hydrochloride) [Compound 14a, (+)-8-fluoro-3-[[4-(5-fluoro-1H-indol-3-yl)-1-methylbutyl](propyl)amino]chromane-5-carboxamide]",148 to 150 °C
11,"COC(=O)c1ccc(F)c2c1CC(N(CCCc1c[nH]c3ccc(F)cc13)C1CCC1)CO2 (stereo not shown) (as salt: hydrochloride) [Compound 11, Methyl 3-{cyclobutyl[3-(5-fluoro-1H-indol-3-yl)propyl]amino}-8-fluorochromane-5-carboxylate]",110 °C (dec.)
12,"O=C(NC1CCC1)c1ccc(F)c2c1CC(N(CCCc1c[nH]c3ccc(F)cc13)C1CCC1)CO2 (stereo not shown) (as salt: hydrochloride) [Compound 65, N-cyclobutyl-3-{cyclobutyl[3-(5-fluoro-1H-indol-3-yl)propyl]amino}-8-fluorochromane-5-carboxamide]",135 °C (dec.)
13,"CNC(=O)c1ccc(F)c2c1CC(N(CCCCc1c[nH]c3ccc(F)cc13)CC1CC1)CO2 (stereo not shown) (as salt: hydrochloride) [Compound 94, 3-{(cyclopropylmethyl)[4-(5-fluoro-1H-indol-3-yl)butyl]amino}-8-fluoro-N-methylchromane-5-carboxamide]",112 °C (dec.)
14,"CCCN(CCCCc1coc2c(OC)cccc12)C1COc2c(F)ccc(C(N)=O)c2C1 (stereo not shown) (as salt: hydrochloride) [Compound 169, 8-fluoro-3-[[4-(7-methoxy-1-benzofuran-3-yl)butyl](propyl)amino]chromane-5-carboxamide]",99 to 110 °C (dec.)
15,"CCCN(CCCc1c[nH]c2c(OC)cccc12)C1COc2c(F)ccc(C(N)=O)c2C1 (stereo not shown) (as salt: hydrochloride) [Compound 100, 8-fluoro-3-[[3-(7-methoxy-1H-indol-3-yl)propyl](propyl)amino]chromane-5-carboxamide]",158 to 164 °C (dec.)
16,"CCCN(CCC(O)c1csc2ccc(F)cc12)C1COc2c(F)ccc(C(N)=O)c2C1 (stereo not shown) (as salt: hydrochloride) [Compound 17, 8-fluoro-3-[[3-(5-fluoro-1-benzothien-3-yl)-3-hydroxypropyl](propyl)amino]chromane-5-carboxamide]",117 °C (dec.)

row,Compound,melting point
1,"NC(=O)c1ccc(F)c2c1CC(N(CCc1c[nH]c3ccc(F)cc13)CC1CC1)CO2 (stereo not shown) (as salt: hydrochloride) [Compound 78, 3-{(cyclopropylmethyl)[2-(5-fluoro-1H-indol-3-yl)ethyl]amino}-8-fluorochromane-5-carboxamide]",132 °C (dec.)
2,"CCN(CCc1c[nH]c2ccc(F)cc12)C1COc2c(F)ccc(C(N)=O)c2C1 (stereo not shown) (as salt: hydrochloride) [Compound 76, 3-{ethyl[2-(5-fluoro-1H-indol-3-yl)ethyl]amino}-8-fluorochromane-5-carboxamide]",127 °C (dec.)
3,"CC(C)NC(=O)c1ccc(F)c2c1CC(N(CCCc1c[nH]c3ccc(F)cc13)C1CCC1)CO2 (stereo not shown) (as salt: hydrochloride) [Compound 63, 3-{cyclobutyl[3-(5-fluoro-1H-indol-3-yl)propyl]amino}-8-fluoro-N-isopropylchromane-5-carboxamide]",127 °C (dec.)
4,"NC(=O)c1ccc(F)c2c1CC(N(CCCc1c[nH]c3c(Cl)cccc13)C1CCC1)CO2 (stereo not shown) (as salt: hydrochloride) [Compound 111, 3-[[3-(7-chloro-1H-indol-3-yl)propyl](cyclobutyl)amino]-8-fluorochromane-5-carboxamide]",154 to 163 °C (dec.)
5,"CCN(CCCc1c[nH]c2ccc(OC)cc12)C1COc2c(F)ccc(C(N)=O)c2C1 (stereo not shown) (as salt: hydrochloride) [Compound 105, 3-{ethyl[3-(5-methoxy-1H-indol-3-yl)propyl]amino}-8-fluorochromane-5-carboxamide]",154 to 162 °C (dec.)
6,"CCCN(CCCc1c[nH]c2ccc(F)cc12)[C@H]1CCc2cccc(OC)c2C1 (as salt: hydrochloride) [Compound 47a, (−)-N-[3-(5-fluoro-1H-indol-3-yl)propyl]-8-methoxy-N-propyl-1,2,3,4-tetrahydronaphthalen-2-amine]",107 °C (dec.)
7,"CN(C)C(=O)c1ccc(F)c2c1CC(N(CCCc1c[nH]c3ccc(F)cc13)C1CCC1)CO2 (stereo not shown) (as salt: hydrochloride) [Compound 73, 3-{cyclobutyl[3-(5-fluoro-1H-indol-3-yl)propyl]amino}-8-fluoro-N,N-dimethylchromane-5-carboxamide]",126 °C (dec.)
8,"NC(=O)c1ccc(F)c2c1OCC(N(CCCc1c[nH]c3ccc(F)cc13)C1CCC1)C2 (stereo not shown) (as salt: hydrochloride) [Compound 122, 3-{cyclobutyl[3-(5-fluoro-1H-indol-3-yl)propyl]amino}-5-fluorochromane-8-carboxamide]",132 °C (dec.)
9,"COc1cccc2c1CC(N(CCCc1c[nH]c3ccc(F)cc13)C(C)C)CO2 (stereo not shown) (as salt: hydrochloride) [Compound 40, N-[3-(5-fluoro-1H-indol-3-yl)propyl]-N-isopropyl-N-(5-methoxy-3,4-dihydro-2H-chromen-3-yl)amine]",105 °C (dec.)
10,"NC(=O)c1ccc(F)c2c1OCC(N(CCCc1c[nH]c3c(F)cc(F)cc13)CC1CC1)C2 (stereo not shown) (as salt: hydrochloride) [Compound 130, 3-{(cyclopropylmethyl)[3-(5,7-difluoro-1H-indol-3-yl)propyl]amino}-5-fluorochromane-8-carboxamide]",124 °C (dec.)
11,"COc1cccc2c1CC(N(CCCc1c[nH]c3ccc(F)cc13)C1CCC1)CO2 (stereo not shown) (as salt: hydrochloride) [Compound 34, N-cyclobutyl-N-[3-(5-fluoro-1H-indol-3-yl)propyl]-5-methoxychroman-3-amine]",70.5 °C (dec.)
12,"CC(CCc1c[nH]c2ccc(F)cc12)N(CC1CC1)C1COc2c(F)ccc(C(N)=O)c2C1 (single isomer, unassigned; (-)) (as salt: hydrochloride) [Compound 15a, (−)-3-{(cyclopropylmethyl)[3-(5-fluoro-1H-indol-3-yl)-1-methylpropyl]amino}-8-fluorochromane-5-carboxamide]",135 °C (dec.)
13,"CCN(CCCCc1coc2c(OC)cccc12)C1COc2c(F)ccc(C(N)=O)c2C1 (stereo not shown) (as salt: hydrochloride) [Compound 168, 3-{ethyl[4-(7-methoxy-1-benzofuran-3-yl)butyl]amino}-8-fluorochromane-5-carboxamide]",112 to 118 °C
14,"CCCN(CCCCc1coc2c(OC)cccc12)[C@H]1COc2c(F)ccc(C(N)=O)c2C1 (as salt: hydrochloride) [Compound 172, (3R)-8-fluoro-3-[[4-(7-methoxy-1-benzofuran-3-yl)butyl](propyl)amino]chromane-5-carboxamide]",103 to 111 °C
15,"COc1cccc2c(CCCCN(CC3CC3)C3COc4c(F)ccc(C(N)=O)c4C3)coc12 (stereo not shown) (as salt: hydrochloride) [Compound 170, 3-{(cyclopropylmethyl)[4-(7-methoxy-1-benzofuran-3-yl)butyl]amino}-8-fluorochromane-5-carboxamide]",114 to 120 °C
